Here are results for 2 molecules from patent publication US20230219957A1, “SMALL MOLECULE CB002-ANALOGES RESTORE THE P53 PATHWAY AND TARGET S-PHASE CHECKPOINT” (Brown University, priority 2020, published 2023).

What all share (format): cell-based, human
The subject of data set [1] is SW480 colon cancer cells. As to the kind of experiment: Propidium iodide / BrdU cell cycle analysis of synchronized cells. On the procedure: (§1) Cell synchronization. Synchronized cells were synchronized by double thymidine block. Cells were treated with […] thymidine for sixteen hours. The drug was removed and replaced by complete growth media for eight hours. Cells were treated for the second time with […] thymidine for sixteen hours. At this point, cells were treated and harvested.
Propidium iodide and BrdU flow cytometry assay. Cells were seeded at a density of 5×10^5 in a 6-well plate and treated for forty-eight to seventy-two hours. After treatment, floating cells were collected, and adherent cells were trypsinized, pelleted, washed with phosphate-buffered saline, and fixed in 70% ethanol overnight. For propidium iodide (PI) based Sub-G1 apoptosis analysis, cells were spun down after fixation and resuspended in phosphate-citric acid buffer (0.2M Na2HPO4+0.1M Citric Acid, pH 7.8) at room temperature for five minutes. The cell pellet was resuspended for staining with 50 μg/mL PI and 250 μg/mL ribonuclease (RNase A). For BrdU analysis, after cell fixation, cells were spun down and resuspended in one mL of 2N HCL with 0.5% Triton X-100 for thirty minutes at room temperature. Cells were pelleted, washed with phosphate-buffered saline, and resuspended in 20 μL BrdU antibody (BD Biosciences, cat no. 347580) diluted in 0.5% Tween 20/PBS/5% bovine serum albumin for thirty minutes at room temperature. Cells were then spun down and resuspended in 140 μg/mL goat-anti mouse Alexa Fluor 488 (#A-11008, Thermo Fisher Scientific, Waltham, Mass., USA) in 0.5% Tween 20 in phosphate-buffered saline/5% bovine serum albumin for thirty minutes at room temperature. Cells were then spun down and resuspended in 5 μg/mL PI: 250 μg/mL RNase A solution. Samples were analyzed on an Epics Elite Epics flow cytometer (Coulter-Beckman).
BrdU analysis gating. Cell aggregates were gated out in the PI Peak vs DNA PI histogram. BrdU lower limit intensity was set on the upper limit of the negative control. The no BrdU antibody assays and no goat-anti mouse Alexa Fluor 488 antibody assays were the negative controls. […] Gating was held constant throughout the samples within a given assay.

The test system of data set [2] is SW480 colon cancer cells. As to the kind of experiment: Immunoblot of cell cycle markers. The following applies: for M-phase marker pH3(Ser10) / pcdc2(Tyr15) and pcdc25c(Ser16) expression: combination with etoposide; for S-phase marker p-RPA-RPA2(S8) expression: synchronized SW480, time-course after release. On the procedure:
Immunoblotting (additional method). After treatment, floating cells were collected, and adherent cells were trypsinized, washed with phosphate-buffered saline, and lysed with RIPA buffer (Sigma-Aldrich, St. Louis, Mo., USA) for thirty minutes to one hour at 4° C. Protein lysates were pelleted. The supernatant was collected. Total protein per sample was determined using a Pierce™ BCA Protein Assay Kit (Thermo Fisher Scientific, Waltham, Mass., USA). Proteins were denatured using 1× NuPAGE® LDS sample buffer (Thermo Fisher Scientific, Waltham, Mass., USA) and reduced with 2-mercaptoethanol (Sigma-Aldrich, St. Louis, Mo., USA). Protein lysates were boiled for fifteen min at 95° C. After protein normalization, samples were loaded into NuPAGE™ Novex™ 4-12% Bis-Tris Protein Gels (Thermo Fisher Scientific, Waltham, Mass., USA). Gel electrophoresis was performed with NuPAGE™ MES SDS Running Buffer. Proteins were transferred onto an Immobilon-P membrane (PVDF, EMD Millipore, Taunton, Mass., USA) using a Bio-Rad system with a 10% Tris-Glycine and 10% methanol transfer buffer diluted in distilled and deionized water. Membranes were blocked with 10% milk in Tris-buffered saline with Tween 20 (TBST) solution. The membranes were incubated overnight with the primary antibody, washed with TBST, and incubated with secondary antibody for one hour. Primary antibody incubations were performed in 5% milk or 5% bovine serum albumin in TBST solution as per manufacturer instructions. Signal was detected using a chemiluminescent detection kit, followed by autoradiography. The following antibodies were used: p53 (1:1000, #sc-126, Santa Cruz Biotechnology, Santa Cruz, Calif., USA), p73 (1:1000, #A300-126A, Bethyl Laboratories), Noxa (1:250, #OP180, EMD Millipore, Taunton, Mass., USA), DR5 (#3696), cleaved PARP (#9546), phospho-RPA32/RPA2 (#54762), p-cdc2 (#9111), p-cdc25c, pH3 (#3377) (1:1,000; Cell Signaling Technology, Inc., Danvers, Mass. USA) and β-actin (1:10000, A5441, Sigma).
as §1

Data set [3] concerns colorectal cancer patient-derived organoid. As to the kind of experiment: Cytotoxicity and immunofluorescence in patient-derived organoid. The following applies: for cleaved caspase-3 staining (apoptotic cells): IC50 doses; for ethidium homodimer staining (dead cells): compared to vehicle control. On the procedure: CellTiter-Glo® luminescent cell viability assay. Cells were seeded in 96-well plates at a density of 5×10^3 cells per well. 20 μL of CellTiter-Glo® Reagent was added directly to the wells, following the manufacturers protocol. The bioluminescence signal was determined using an IVIS imaging system, optionally at a period of 48-72 hours after treatment.
Immunohistochemistry. 30,000 cells/well were seeded in 8-chamber slides. Cells were washed with phosphate-buffered saline at the harvesting time point and fixed with 4% parafornaldehyde for 25 minutes. Cells were then washed with phosphate-buffered saline and permeabilized with 0.2% Triton X-100 for 5-10 minutes. Cells were then washed with phosphate-buffered saline and incubated overnight 1:100 with the primary antibody Cyt-C (#sc-13560, Santa Cruz Biotechnology, Santa Cruz, Calif., USA), Tom-20 (#42406), commercially available from Cell Signaling Technology, Inc., Danvers, Mass. USA), cells were washed with phosphate-buffered saline and incubated with secondary antibody 1:200 goat-anti mouse Alexa Fluor 488 (#A-11008, Thermo Fisher Scientific, Waltham, Mass., USA) and Cy3 AffiniPure Donkey anti-rabbit (#711-165-152, Jackson ImmunoResearch, West Grove, Pa., USA) for one hour followed by phosphate-buffered saline washing, 1:400 Dapi staining, washed with phosphate-buffered saline, and imaged. Organoid viability imaging was determined by CellTrace™ Calcein Green (#C34852, Thermo Fisher Scientific, Waltham, Mass., USA), Ethidium Homodimer-1 (#E1169, Thermo Fisher Scientific, Waltham, Mass., USA), Ki67 incubated at 37° C. for one hour then washed with phosphate-buffered saline and imaged. Imaging was done using a Leica Confocal Microscope.

Each structure is given as a SMILES string.

For `Cn1c(=O)c2[nH]c(Nc3cccc(C(F)(F)F)c3)nc2n(C)c1=O` [CB002-analog #4], the S-phase accumulation result in the data set with SW480 colon cancer cells [1] (eight hours following release from synchronization) was “S-phase accumulation”. Moreover, the “increase of cells in S-phase” value in the data set with SW480 colon cancer cells [1] (twelve hours, PI and BrdU co-staining, compared to DMSO vehicle control) is 30%. The “G2-phase cells versus etoposide” value with SW480 colon cancer cells [1] (twenty-four hours) is recorded as “no significant differences”. Also, in the data set on SW480 colon cancer cells [2] (synchronized SW480), the “M-phase marker pH3(Ser10)” value is reported as “does not increase”; the “pcdc2(Tyr15) and pcdc25c(Ser16) expression” value is “decrease in expression”. In addition, the “pcdc2(Tyr15) and pcdc25c(Ser16) protein expression” value with SW480 colon cancer cells [2] (single agent, synchronized SW480) was “decreased”. Moreover, the “S-phase marker p-RPA-RPA2(S8) expression” value in the data set on SW480 colon cancer cells [2] is given as “increased compared to DMSO”. For the same molecule, the p21 result in the data set with SW480 colon cancer cells [2] (time-course after synchronization release) is “increase”. Besides, in the data set on SW480 colon cancer cells [2] (time-course, compared to DMSO and etoposide), the “Cyclin A expression” value is recorded as “did not decrease over time”. In data set [3], the “organoid size (calcein staining)” value was “smaller in size”, the “cleaved caspase-3 staining (apoptotic cells)” value is listed as “increases apoptotic cells” and the “ethidium homodimer staining (dead cells)” value was “increase of ethidium homodimer staining”. The “Ki-67 staining (proliferating cells)” value in data set [3] (seventy-two hours, dose-dependent) is “decreases the population of proliferating cells”. In data set [3] (versus CB002 parent compound), the “cytotoxicity (cell viability response curve)” value was “enhances cytotoxicity compared to the CB002 parent compound”.
For `Cn1c(=O)c2[nH]c(Nc3ccccc3)nc2n(C)c1=O` [CB002], in the data set with SW480 colon cancer cells [1] (six-eight hours of treatment, combined with etoposide), the “S-phase delay, difference” value is recorded as 2 fold. In the data set on SW480 colon cancer cells [2] (synchronized SW480), the “M-phase marker pH3(Ser10)” value is listed as “does not increase”; the “pcdc2(Tyr15) and pcdc25c(Ser16) expression” value is “decrease in expression”. The “S-phase marker p-RPA-RPA2(S8) expression” value with SW480 colon cancer cells [2] is recorded as “increase”. Also, in data set [3], the “cleaved caspase-3 staining (apoptotic cells)” value is recorded as “increases apoptotic cells” and the “ethidium homodimer staining (dead cells)” value is on record as “increase of ethidium homodimer staining”.
